{
  "source": "ChEMBL document CHEMBL4431301",
  "about": "“The Medicinal Chemistry of Dengue Virus” (J Med Chem, 2016)",
  "key": {"dengue virus type 2 [1]": {"tested_on": "dengue virus type 2", "assay": "Antiviral activity against Dengue virus 2 NGC infected in human K562 cells assessed as inhibition in live viral replication after 48 hrs by plaque assay", "format": "functional, organism-based", "conditions": "K562, 48 h"}, "[2]": {"assay": "Selectivity index, ratio of CC50 for BHK21 cells to EC50 for Dengue virus 2 infected in BHK21 cells", "format": "toxicity, cell-based", "conditions": "hamster, read-out: Ratio CC50/EC50"}, "dengue virus type 2 [3]": {"tested_on": "dengue virus type 2", "assay": "Antiviral activity against Dengue virus 2 infected in BHK21 cells assessed as reduction in virus replication after 72 hrs by renilla luciferase reporter gene assay", "format": "functional, organism-based", "conditions": "BHK-21, 72 h"}, "dengue virus type 4 [4]": {"tested_on": "dengue virus type 4", "assay": "Antiviral activity against Dengue virus 4 H241 VR-1257 infected in african green monkey Vero cells assessed as reduction in viral titer after 48 hrs by plaque assay", "format": "functional, organism-based", "conditions": "H241 VR-1257, Vero"}, "dengue virus type 1 [5]": {"tested_on": "dengue virus type 1", "assay": "Antiviral activity against Dengue virus 1 TH-Sman VR-344 infected in african green monkey Vero cells assessed as reduction in viral titer after 48 hrs by plaque assay", "format": "functional, organism-based", "conditions": "TH-Sman VR-344, Vero"}, "dengue virus type 3 [6]": {"tested_on": "dengue virus type 3", "assay": "Antiviral activity against Dengue virus 3 H87 VR-1256 infected in african green monkey Vero cells assessed as reduction in viral titer after 48 hrs by plaque assay", "format": "functional, organism-based", "conditions": "H87 VR-1256, Vero"}, "dengue virus type 2 [7]": {"tested_on": "dengue virus type 2", "assay": "Antiviral activity against Dengue virus 2 NGC VR-1255 infected in african green monkey Vero cells assessed as reduction in viral titer after 48 hrs by plaque assay", "format": "functional, organism-based", "conditions": "NGC VR-1255, Vero"}, "dengue virus type 2 [8]": {"tested_on": "dengue virus type 2", "assay": "Antiviral activity against Dengue virus 2 NGC infected in BHK21 cells after 48 hrs by plaque reduction assay", "format": "functional, organism-based", "conditions": "BHK-21, 48 h"}, "dengue virus type 2 [9]": {"tested_on": "dengue virus type 2", "assay": "Antiviral activity against Dengue virus 2 16681 infected in human HuH7 cells after 72 hrs by indirect immunofluorescent flow cytometry", "format": "functional, organism-based", "conditions": "Dengue virus, 16681, Huh-7, 72 h"}, "dengue virus type 2 [10]": {"tested_on": "dengue virus type 2", "assay": "Antiviral activity against Dengue virus 2 3295 infected in BHK21 cells after 48 hrs by CFI assay", "format": "functional, organism-based", "conditions": "Dengue virus, 3295, BHK-21, 48 h"}, "Junin virus": {"tested_on": "Junin virus", "assay": "Antiviral activity against Junin virus IV4454 infected in african green monkey Vero cells assessed as inhibition of viral yield after 48 hrs", "format": "functional, organism-based", "conditions": "Mammarenavirus juninense"}, "dengue virus type 3 [11]": {"tested_on": "dengue virus type 3", "assay": "Antiviral activity against Dengue virus 3 H87 infected in african green monkey Vero cells assessed as inhibition of viral yield after 48 hrs", "format": "functional, organism-based"}, "dengue virus type 2 [12]": {"tested_on": "dengue virus type 2", "assay": "Antiviral activity against Dengue virus 2 NGC infected in african green monkey Vero cells assessed as inhibition of viral yield after 48 hrs", "format": "functional, organism-based"}, "dengue virus type 1 [13]": {"tested_on": "dengue virus type 1", "assay": "Antiviral activity against Dengue virus 1 Hawaii infected in african green monkey Vero cells assessed as inhibition of viral yield after 48 hrs", "format": "functional, organism-based"}, "dengue virus type 2 [14]": {"tested_on": "dengue virus type 2", "assay": "Antiviral activity against Dengue virus 2 NGC infected in human A549 cells assessed as reduction in virus replication after 48 hrs by renilla luciferase reporter gene assay", "format": "functional, organism-based", "conditions": "A549, 48 h"}, "[15]": {"assay": "Cytotoxicity against BHK21 cells after 1 hr by alamar blue assay", "format": "cell-based, Mesocricetus auratus, BHK-21", "conditions": "hamster"}, "dengue virus type 2 [16]": {"tested_on": "dengue virus type 2", "assay": "Antiviral activity against Dengue virus 2 NGC infected in BHK21 cells after 24 hrs by plaque reduction assay", "format": "functional", "conditions": "BHK-21, 24 h"}, "[17]": {"assay": "Binding affinity to His-tagged Dengue virus 3 methyltransferase expressed in Escherichia coli Rosetta 2(DE3) by VP-ITC isothermal titration calorimetry", "design": "species or system dengue virus type 3"}, "Genome polyprotein": {"target": "Genome polyprotein (dengue virus type 2, UniProt P29990)", "sequence (P29990 1346-1475 limits assumed)": "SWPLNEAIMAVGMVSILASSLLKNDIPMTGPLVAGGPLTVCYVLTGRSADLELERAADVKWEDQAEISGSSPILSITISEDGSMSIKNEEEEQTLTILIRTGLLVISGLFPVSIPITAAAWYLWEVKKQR", "sequence (P29990 1476-2093 limits assumed)": "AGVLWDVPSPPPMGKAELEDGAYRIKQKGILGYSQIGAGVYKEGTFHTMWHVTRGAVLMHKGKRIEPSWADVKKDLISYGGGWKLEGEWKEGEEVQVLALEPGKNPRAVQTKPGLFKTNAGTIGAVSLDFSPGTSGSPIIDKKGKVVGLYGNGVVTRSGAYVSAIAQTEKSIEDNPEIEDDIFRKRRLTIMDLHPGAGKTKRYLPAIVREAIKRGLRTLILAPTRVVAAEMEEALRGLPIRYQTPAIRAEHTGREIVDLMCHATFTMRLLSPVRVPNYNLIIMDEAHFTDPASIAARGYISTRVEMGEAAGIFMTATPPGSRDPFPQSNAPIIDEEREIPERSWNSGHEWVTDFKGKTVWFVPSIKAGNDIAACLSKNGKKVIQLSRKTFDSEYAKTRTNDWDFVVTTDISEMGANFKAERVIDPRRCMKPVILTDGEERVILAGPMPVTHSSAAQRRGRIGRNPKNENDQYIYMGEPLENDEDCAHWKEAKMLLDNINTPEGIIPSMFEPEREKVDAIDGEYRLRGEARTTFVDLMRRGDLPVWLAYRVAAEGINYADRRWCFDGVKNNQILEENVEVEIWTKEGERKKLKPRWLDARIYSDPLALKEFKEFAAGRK", "assay": "Inhibition of recombinant Dengue virus type 2 NS2B-NS3 protease expressed in Escherichia coli C41 cells using GRR-AMC as substrate after 15 mins by fluorescence assay"}, "dengue virus type 4 [18]": {"tested_on": "dengue virus type 4", "assay": "Antiviral activity against Dengue virus 4 8124 infected in african green monkey Vero cells assessed as inhibition of viral yield after 48 hrs", "format": "functional, organism-based", "conditions": "Dengue virus, 8124, Vero"}, "[19]": {"assay": "Cytotoxicity against human HuH7 cells assessed as cell viability after 48 hrs by CellTiter Glo assay", "format": "cell-based, Huh-7"}, "dengue virus type 2 [20]": {"tested_on": "dengue virus type 2", "assay": "Antiviral activity against Dengue virus 2 NGC infected in human HuH7 cells assessed as reduction in virus replication after 48 hrs by renilla luciferase reporter gene assay", "format": "functional, organism-based", "conditions": "Huh-7, 48 h"}},
  "note": "Where a SMILES comes first, the peptide text is derived from it.",
  "data": [
    {"smiles": "C=C(CC[C@]12O[C@H](C(=O)O)[C@@](O)(C(=O)O)[C@](C(=O)O)(O1)[C@H](OC(=O)/C=C/[C@@H](C)C[C@@H](C)CC)[C@H]2O)[C@@H](OC(C)=O)[C@H](C)Cc1ccccc1", "note": "[ZARAGOZIC ACIDS A]", "values": [
      {"measurement": "EC50", "setting": "dengue virus type 2 [1]", "result": 8.3, "unit": "µM"}
    ]},
    {"smiles": "Cc1cc(N2C(=O)C(O)=C(C(=O)c3ccc(C)o3)C2c2cc(Cl)cc(Cl)c2)no1", "note": "(stereo not given)", "values": [
      {"measurement": "selectivity ratio", "setting": "[2]", "result": 4.5},
      {"measurement": "EC50", "setting": "dengue virus type 2 [3]", "result": 36, "unit": "µM"}
    ]},
    {"smiles": "NC(=O)C1(N2CCCCC2)CCN(C(=O)CSc2nc3ccccc3o2)CC1", "values": [
      {"measurement": "EC50", "setting": "dengue virus type 4 [4]", "result": "0.203 to 0.272", "unit": "µM"},
      {"measurement": "EC50", "setting": "dengue virus type 1 [5]", "result": "0.203 to 0.272", "unit": "µM"},
      {"measurement": "EC50", "setting": "dengue virus type 3 [6]", "result": "0.203 to 0.272", "unit": "µM"},
      {"measurement": "EC50", "setting": "dengue virus type 2 [7]", "result": "0.203 to 0.272", "unit": "µM"}
    ]},
    {"smiles": "OC[C@@H]1[C@@H](O)[C@H](O)[C@@H](O)CN1CCCCCC1(O)CCCCC1", "values": [
      {"measurement": "EC50", "setting": "dengue virus type 2 [8]", "result": 2, "unit": "µM"}
    ]},
    {"smiles": "NC(=O)c1ncn([C@@H]2O[C@H](CO)[C@@H](O)[C@H]2O)n1", "note": "[RIBAVIRIN]", "values": [
      {"measurement": "EC50", "setting": "dengue virus type 2 [9]", "result": 40, "unit": "µM"}
    ]},
    {"smiles": "O[C@H]1[C@H](O)[C@@H](O)CN2CC[C@H](O)[C@H]12", "note": "[CASTANOSPERMINE]", "values": [
      {"measurement": "EC50", "setting": "dengue virus type 2 [10]", "result": 28, "unit": "µM"}
    ]},
    {"smiles": "OC[C@@H]1[C@@H](O)[C@H](O)[C@@H](O)CN1CCCCC1CCCCC1", "values": [
      {"measurement": "EC50", "setting": "dengue virus type 2 [8]", "result": 1.5, "unit": "µM"}
    ]},
    {"smiles": "C=CCn1c2ccccc2c(=O)c2ccc(Cl)cc21", "values": [
      {"measurement": "EC50", "setting": "Junin virus", "result": "2.5 to 5.5", "unit": "µM"},
      {"measurement": "EC50", "setting": "dengue virus type 3 [11]", "result": "8.3 to 15.9", "unit": "µM"},
      {"measurement": "EC50", "setting": "dengue virus type 2 [12]", "result": "2.5 to 5.5", "unit": "µM"},
      {"measurement": "EC50", "setting": "dengue virus type 1 [13]", "result": "8.3 to 15.9", "unit": "µM"}
    ]},
    {"smiles": "COc1c(C)c2c(c(O)c1C/C=C(\\C)CCC(=O)O)C(=O)OC2", "note": "[MYCOPHENOLIC ACID]", "values": [
      {"measurement": "EC50", "setting": "dengue virus type 2 [9]", "result": 1.9, "unit": "µM"}
    ]},
    {"smiles": "CC(C)n1c(/C=C/C(O)CC(O)CC(=O)O)c(-c2ccc(F)cc2)c2ccccc21", "note": "(stereo not given) [FLUVASTATIN]", "values": [
      {"measurement": "EC50", "setting": "dengue virus type 2 [14]", "result": "1.82 to 8.75", "unit": "µM"}
    ]},
    {"smiles": "CO[C@@H]1[C@H]2OC(C)(C)O[C@H]2O[C@@H]1C(=O)c1cnc2sc(C(=O)c3ccc(Br)cc3)cn12", "values": [
      {"measurement": "EC50", "setting": "Junin virus", "result": 12, "unit": "µM"},
      {"measurement": "EC50", "setting": "dengue virus type 2 [12]", "result": 29.9, "unit": "µM"}
    ]},
    {"smiles": "N#C/C(=N\\Nc1cccc(Cl)c1)C(=O)c1ccco1", "values": [
      {"measurement": "CC50 at 1 h", "setting": "[15]", "result": "> 100", "unit": "µM"},
      {"measurement": "IC90", "setting": "dengue virus type 2 [16]", "result": 16.9, "unit": "µM"}
    ]},
    {"smiles": "CC[C@H](C)C(=O)O[C@H]1C[C@@H](C)C=C2C=C[C@H](C)[C@H](CC[C@@H]3C[C@@H](O)CC(=O)O3)[C@H]21", "note": "[LOVASTATIN]", "values": [
      {"measurement": "EC50", "setting": "dengue virus type 2 [14]", "result": "1.82 to 8.75", "unit": "µM"}
    ]},
    {"smiles": "C[S+](CC[C@H](N)C(=O)[O-])C[C@H]1O[C@@H](n2cnc3c(N)ncnc32)[C@H](O)[C@@H]1O", "note": "(stereo not given in full) [ADEMETIONINE]", "values": [
      {"measurement": "Kd", "setting": "[17]", "result": 0.826, "unit": "µM"}
    ]},
    {"smiles": "CC(=O)N[C@@H](CCCNC(=N)N)C(=O)N[C@H](C(=O)N[C@@H](CO)C(=O)N[C@@H](CCCCN)C(=O)N[C@@H](CCCCN)C(=O)N[C@@H](CCCNC(=N)N)C(N)=O)[C@@H](C)O", "note": "(Ac-RTSKKR-NH2)", "values": [
      {"measurement": "Ki", "setting": "Genome polyprotein", "result": 12, "unit": "µM"}
    ]},
    {"smiles": "C=CCn1c2ccc(Cl)cc2c(=O)c2cccc(OC)c21", "values": [
      {"measurement": "EC50", "setting": "dengue virus type 3 [11]", "result": "13.5 to 27.1", "unit": "µM"},
      {"measurement": "EC50", "setting": "dengue virus type 4 [18]", "result": "13.5 to 27.1", "unit": "µM"},
      {"measurement": "EC50", "setting": "dengue virus type 2 [12]", "result": "13.5 to 27.1", "unit": "µM"},
      {"measurement": "EC50", "setting": "dengue virus type 1 [13]", "result": "13.5 to 27.1", "unit": "µM"}
    ]},
    {"smiles": "C=C1C(=O)OC(CCCCCCCC)C1C(=O)O", "note": "(stereo not given)", "values": [
      {"measurement": "CC50 at 48 h", "setting": "[19]", "result": "> 100", "unit": "µM"},
      {"measurement": "EC50", "setting": "dengue virus type 2 [20]", "result": 5.7, "unit": "µM"}
    ]}
  ]
}
